This note sets out measurements from patent US20250176545A1, “LIQUID PESTICIDAL COMPOSITION” (SUMITOMO CHEMICAL COMPANY, LIMITED, priority 2022, published 2025).

A short description of this series: Test Example 2: identification of decomposition products of compound (I) by mass spectra. Type of series: physicochemical. The settings on record: composition with compound (I-A), compound (I-B), dicamba diglycolamine salt, acetic acid and potassium hydroxide, 50° C. for 8 weeks. As to the method: Test Example 2: Identification of Decomposition Product of Compound (I)
Mass spectra were measured for compositions containing the compound (I-A), the compound (I-B), a dicamba diglycolamine salt, acetic acid and potassium hydroxide, which were left to stand in an incubator at 50° C. for 8 weeks.
The decomposition product a is obtained as a result of ring-opening of a uracil ring due to the cleavage of a C—N bond (bond between an N atom at the 3-position and a C atom at the 4-position) included in an imide structure constituting a uracil ring structure of the compound (I-A), and a bond between an N atom at the 1-position and a C atom at the 6-position. The decomposed product b is obtained as a result of the addition of diglycolamine (DGA) to the terminal ethyl ester moiety, in addition to the ring-opening of the uracil ring of the compound (I-A).

On to `C#CCN1C(=O)COc2cc(F)c(N3C(=O)C4=C(CCCC4)C3=O)cc21` [compound (I-B)], for which the decomposition products confirmed entry was “decomposition product c”.
Turning to `CCOC(=O)COc1ncccc1Oc1cc(-n2c(=O)cc(C(F)(F)F)n(C)c2=O)c(F)cc1Cl` [compound (I-A)], the decomposition products confirmed result is “decomposition products a and b”.
